The record followed here is US11730817B2, “Pro-cyclic dinucleotides and pro-cyclic dinucleotide conjugates for cytokine induction” (INVIVOGEN, priority 2017, dated 2023).

This test addresses STING (Homo sapiens, UniProt Q86WV6, G230A/H232R/R293Q/R71H). As to the kind of experiment: ISG54 (IRF pathway) reporter assay in THP1-Dual cells. Particulars: for EC50 rank order (lipid chain length): FIG. 6, human or murine reporter cell.

Chain of STING (Q86WV6 whole entry R71H/G230A/H232R/R293Q): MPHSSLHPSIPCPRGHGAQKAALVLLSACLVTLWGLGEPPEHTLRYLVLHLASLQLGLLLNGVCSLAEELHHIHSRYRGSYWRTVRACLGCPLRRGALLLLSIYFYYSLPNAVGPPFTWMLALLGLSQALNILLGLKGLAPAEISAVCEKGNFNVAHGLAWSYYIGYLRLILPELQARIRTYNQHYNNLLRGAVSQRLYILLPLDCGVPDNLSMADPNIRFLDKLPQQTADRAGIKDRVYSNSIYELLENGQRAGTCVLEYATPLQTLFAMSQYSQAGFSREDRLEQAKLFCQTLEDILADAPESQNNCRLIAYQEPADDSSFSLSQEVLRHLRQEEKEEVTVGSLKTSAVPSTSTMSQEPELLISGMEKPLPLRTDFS

As to `Nc1ncnc2c1ncn2[C@@H]1O[C@@H]2COP(=O)(S)O[C@H]3C[C@H](n4cnc5c(=O)[nH]cnc54)O[C@@H]3COP(=O)(O)O[C@H]2[C@H]1F` (stereo partly shown) [CL797, reference compound], the concentration for a half-maximal effect (EC50) was determined as 8.15 µM. In addition, the “Fold ISG induction vs unstimulated @10 μM” value (“Fold ISG induction” for short) (THP1-Dual cells) was determined as 181 fold.
`CC(C)[C@H](N)C(=O)N[C@@H](C)C(=O)Nc1ccc(CSP2(=O)OC[C@H]3O[C@@H](n4cnc5c(N)ncnc54)[C@H](F)[C@@H]3OP(=O)(O)OC[C@H]3O[C@@H](n4cnc5c(O)ncnc54)C[C@@H]3O2)cc1` (stereo partly shown) [CL819]: the “EC50 rank order (lipid chain length)” value was “EC50 (CL819=C2-CL797)=EC50 (CL797)”.
Turning to `CCCC(=O)N[C@H](C(=O)N[C@@H](C)C(=O)Nc1ccc(CSP2(=O)OC[C@H]3O[C@@H](n4cnc5c(N)ncnc54)[C@H](F)[C@@H]3OP(=O)(O)OC[C@H]3O[C@@H](n4cnc5c(O)ncnc54)C[C@@H]3O2)cc1)C(C)C` (stereo partly shown) [CL820], the “EC50 rank order (lipid chain length)” value is “EC50 (CL820=C4-CL797)=EC50 (CL819=C2-CL797)=EC50 (CL797)”.
`CC(C)[C@H](NC(=O)COCCOCCNC(=O)COCCOCCNC(=O)COCCOCCNC(=O)COCCOCCN)C(=O)N[C@H](C)C(=O)Nc1ccc(CSP2(=O)OC[C@H]3O[C@@H](n4cnc5c(N)ncnc54)[C@H](F)[C@@H]3OP(=O)(O)OC[C@H]3O[C@@H](n4cnc5c(O)ncnc54)C[C@@H]3O2)cc1` (stereo partly shown) [CL822]: the “Fold ISG induction” value (THP1-Dual cells) is recorded as 29 fold.
On to `COC(=O)C1O[C@@H](Oc2ccc(CSP3(=O)OC[C@H]4O[C@@H](n5cnc6c(N)ncnc65)[C@H](F)[C@@H]4OP(=O)(O)OC[C@H]4O[C@@H](n5cnc6c(O)ncnc65)C[C@@H]4O3)cc2[N+](=O)[O-])C(OC(C)=O)C(OC(C)=O)[C@@H]1OC(C)=O` (stereo partly shown) [CL831], for which the “Fold ISG induction” value (THP1-Dual cells) was determined as 6 fold.
For the compound `CC(C)[C@H](NC(=O)CCCCCN1C(=O)C=CC1=O)C(=O)N[C@@H](C)C(=O)Nc1ccc(CSP2(=O)OC[C@H]3O[C@@H](n4cnc5c(N)ncnc54)[C@H](F)[C@@H]3OP(=O)(O)OC[C@H]3O[C@@H](n4cnc5c(O)ncnc54)C[C@@H]3O2)cc1` (stereo partly shown) [CL843], where the note is “THP1-Dual cells”, the “Fold ISG induction” value worked out at 16 fold.
`Nc1ncnc2c1ncn2[C@@H]1OC2COP(=O)(S)O[C@@H]3C(COP(=O)(O)O[C@H]2[C@H]1F)O[C@@H](n1cnc2c(=O)[nH]cnc21)[C@@H]3F` (stereo partly shown) [CL845, reference compound] registered a 50% effective concentration (EC50) of 4.57 µM. Further, the “Fold ISG induction” value (THP1-Dual cells) turned out to be 227 fold.
Regarding `COC(=O)C1O[C@@H](Oc2ccc(CSP3(=O)OC[C@H]4O[C@@H](n5cnc6c(=O)[nH]cnc65)[C@H](F)[C@@H]4OP(=O)(O)OC[C@H]4O[C@@H](n5cnc6c(N)ncnc65)[C@H](F)[C@@H]4O3)cc2NC(=O)CCCCCN2C(=O)C=CC2=O)C(OC(C)=O)C(OC(C)=O)[C@@H]1OC(C)=O` (stereo partly shown) [CL847], the “Fold ISG induction” value (THP1-Dual cells) is listed as 132 fold.
For the compound `CC(C)[C@H](NC(=O)[C@@H](CN)N1C(=O)C=CC1=O)C(=O)N[C@@H](C)C(=O)Nc1ccc(CSP2(=O)OC[C@H]3O[C@@H](n4cnc5c(N)ncnc54)[C@H](F)[C@@H]3OP(=O)(S)OC[C@H]3O[C@@H](n4cnc5c(O)ncnc54)[C@H](F)[C@@H]3O2)cc1` (stereo partly shown) [CL874], the “% activity (vs cGAMP)” value is listed as 297%. In addition, under “THP1-Dual cells”, the “Fold ISG induction” value is given as 156 fold and the “ISG activity” value is on record as “retains full 15G activity”.

The term EC50 denotes the concentration at which the effect is half-maximal. A lower EC50 goes with a more potent agent.
